Holding throughout (assay type): cell-based, human
One test deals with MEC1 cells. Kind of test: MTT cell proliferation assay, MEC1 cells. As to the method:
(§1) For metabolic activity assays, here MTT-assays, cell density was 3×10^4 cells per well (96 well plate). For ROS/superoxide detection assays cell density was 1×10^5 per tube (volume 1 ml). For NF-κB family member activation assays nuclear cell extracts were used (9×10^6 cells/6 ml volume in 6 well plates). The MTT or XTT assay is the most reliable for assessment of cell growth. In principal all assays are based on staining of viable cells after treatment. Cytotoxic effects in cell lines may also be assessed by [^3H] thymidine incorporation (see below). Cell proliferation was assessed by the MTT assay. […] The plates were incubated for 72 h under standard conditions. After addition of 15 μl of a 5 mg/ml MTT solution (MTT; Sigma, Germany) to each well and incubation for another 4 h, 100 μl/well of a 10% sodium dodecyl sulphate solution in 0.01 M hydrochloric acid were added and the plates were incubated overnight under the same conditions (stain development). Subsequently, the absorbance of each well at 540 nm (reference wavelength 690 nm) was recorded with an absorbance plate reader (Sunrise, Tecan, Switzerland). Blank control values (no drug, no cells) were subtracted from the sample values and the means of replicate wells for each drug dilution and the control (cells grown in absence of the drug) were used to calculate the extent of relative cell proliferation (as percentage of the control) and growth inhibition.

The next test has as its system HL60 cells. The test can be described thus: MTT cell proliferation assay, HL60 cells. The method, then:
For assessment of cytostatic and/or cytotoxic effects HL60 cells were washed in serum-free RPMI-1640 medium supplemented with 2 mM L-glutamine and 1% penicillin/streptomycin and diluted to 1.25×10^5/ml (logarithmic cell growth). Cells were incubated with OU749 for 10 minutes prior to addition of serum (FCS or HS, both 10%) to washed cells resulting in a density of 1.11×10^5/ml. For MTT-assays cell density was 1×10^4 cells per well (96 well plate).
The MTT or XTT assay is the most reliable for assessment of cell growth. In principal all assays are based on staining of viable cells after treatment. Cytotoxic effects in cell lines may also be assessed by [^3H] thymidine incorporation (see below). Cell proliferation was assessed by the MTT assay. After washing in serum-free medium, pre-incubation with inhibitors of the glutathione catabolism, and addition of defined serum or albumin or serum+albumin concentrations, 90-μl aliquots of the cell suspension (density see above) were dispensed into 96-well flat-bottomed microtitre plates containing 10 μl/well of serial drug dilutions. The plates were incubated for 72 h under standard conditions. After addition of 15 μl of a 5 mg/ml MTT solution (MTT; Sigma, Germany) to each well and incubation for another 4 h, 100 μl/well of a 10% sodium dodecyl sulphate solution in 0.01 M hydrochloric acid were added and the plates were incubated overnight under the same conditions (stain development). Subsequently, the absorbance of each well at 540 nm (reference wavelength 690 nm) was recorded with an absorbance plate reader (Sunrise, Tecan, Switzerland). Blank control values (no drug, no cells) were subtracted from the sample values and the means of replicate wells for each drug dilution and the control (cells grown in absence of the drug) were used to calculate the extent of relative cell proliferation (as percentage of the control) and growth inhibition. Since inhibitors were initially dissolved in DMSO, serial drug dilutions and controls were prepared to finally achieve 0.2% DMSO in all wells (total volume 100 μl); no anti-proliferative effects could be observed at this DMSO concentration in the investigated cell lines.
After washing in serum-free medium cells were diluted to desired density (3.70×10^5/ml for MEC1 and MOLM13, 1.25×10^5/ml for HL60) and HS and FCS was added both in a final concentration of 10%. Then 90-μl aliquots of the cell suspension (densities after addition of serum: 3.33×10^5/ml for MEC1 and MOLM13, 1.1×10^5/ml for HL60) were dispensed into 96-well flat-bottomed microtitre plates containing 10 μl/well of serial drug dilutions of NF-κB inhibitors. The cell concentrations in the 96 well plate were: 3×10^4/well for MEC1 and MOLM13, 1×10^4/well for HL60.
Then 90-μl aliquots of the cell suspension (densities after addition of serum: 3.33×10^5/ml for MEC1 and MOLM13, 1.1×10^5/ml for HL60) were dispensed into 96-well flat-bottomed microtitre plates containing 10 μl/well of serial drug dilutions of NF-κB inhibitors. The cell concentrations in the 96 well plates were: 3×10^4/well for MEC1 and MOLM13, 1×10^4/well for HL60.

The subject of another test is MOLM13 cells. Kind of test: MTT cell proliferation assay, MOLM13 cells. As to the method: as §1, with “For NF-κB family member activation assays nuclear cell extracts were used (9×10^6 cells/6 ml volume in 6 well plates).” left out
Where [1] appears, read: Homo sapiens, MEC1, 10% HS, DMSO control, 72 h treatment, read-out: IC50, proliferation of MEC1 cells in HS, DMSO control.
The mark [2] stands for this setting: Homo sapiens, MEC1, 10% HS, plus 200 μM OU749, 72 h treatment, read-out: IC50, proliferation of MEC1 cells in HS after addition of OU749.
The mark [3] stands for this setting: Homo sapiens, MEC1, 10% fetal calf serum, 72 h treatment, read-out: IC50, proliferation of MEC1 cells, FCS 10%.
Setting [4] is: MEC1, 10% human serum, 72 h treatment, read-out: IC50, proliferation of MEC1 cells, HS 10%.
[5] abbreviates: HL-60, 10% human serum, 72 h treatment, read-out: IC50, proliferation of HL60 cells, HS 10%.
The mark [6] stands for this setting: Homo sapiens, HL-60, 10% HS, DMSO control, 72 h treatment, read-out: IC50, proliferation of HL60 cells in HS, DMSO control.
Where [7] appears, read: Homo sapiens, HL-60, 10% HS, plus 200 μM OU749, 72 h treatment, read-out: IC50, proliferation of HL60 cells in HS after addition of OU749.
Where [8] appears, read: Homo sapiens, HL-60, 10% fetal calf serum, 72 h treatment, read-out: IC50, proliferation of HL60 cells, FCS 10%.
The mark [9] stands for this setting: Homo sapiens, MOLM-13, 10% HS, DMSO control, 72 h treatment, read-out: IC50, proliferation of MOLM13 cells in HS, DMSO control.
[10] abbreviates: Homo sapiens, MOLM-13, 10% HS, plus 200 μM OU749, 72 h treatment, read-out: IC50, proliferation of MOLM13 cells in HS after addition of OU749.
[11] abbreviates: Homo sapiens, MOLM-13, 10% fetal calf serum, 72 h treatment, read-out: IC50, proliferation of MOLM13 cells, FCS 10%.
Setting [12] is: MOLM-13, 10% human serum, 72 h treatment, read-out: IC50, proliferation of MOLM13 cells, HS 10%.
Setting [13] is: 10% HS, DMSO control, 72 h treatment, read-out: IC50, proliferation of MEC1 cells in HS, DMSO control.
The mark [14] stands for this setting: 10% HS, plus 200 μM OU749, 72 h treatment, read-out: IC50, proliferation of MEC1 cells in HS after addition of OU749.
Where [15] appears, read: 10% fetal calf serum, 72 h treatment, read-out: IC50, proliferation of MEC1 cells, FCS 10%.
[16] abbreviates: 10% human serum, 72 h treatment, read-out: IC50, proliferation of MEC1 cells, HS 10%.
Where [17] appears, read: 10% HS, DMSO control, 72 h treatment, read-out: IC50, proliferation of HL60 cells in HS, DMSO control.
[18] abbreviates: 10% HS, plus 200 μM OU749, 72 h treatment, read-out: IC50, proliferation of HL60 cells in HS after addition of OU749.
[19] abbreviates: 10% fetal calf serum, 72 h treatment, read-out: IC50, proliferation of HL60 cells, FCS 10%.
[20] abbreviates: 10% human serum, 72 h treatment, read-out: IC50, proliferation of HL60 cells, HS 10%.
Where [21] appears, read: 10% HS, DMSO control, 72 h treatment, read-out: IC50, proliferation of MOLM13 cells in HS, DMSO control.
[22] abbreviates: 10% HS, plus 200 μM OU749, 72 h treatment, read-out: IC50, proliferation of MOLM13 cells in HS after addition of OU749.
Setting [23] is: 10% fetal calf serum, 72 h treatment, read-out: IC50, proliferation of MOLM13 cells, FCS 10%.
Where [24] appears, read: 10% human serum, 72 h treatment, read-out: IC50, proliferation of MOLM13 cells, HS 10%.

Where two headings read alike, the source gives them in different places.

Take `Cc1oncc1C(=O)Nc1ccc(C(F)(F)F)cc1` [Leflunomide, leflunomide]: the IC50 in the test on MEC1 cells (setting [1]) was found to be 586 ± 29.8 µM; in the test with MEC1 cells (setting [2]), 176 ± 22.1 µM; in the test with MEC1 cells (setting [3]), 72.5 ± 5.12 µM; with MEC1 cells (setting [4]), 586 ± 29.8 µM; in the test on HL60 cells (setting [5]), 77.1 ± 2.91 µM; with HL60 cells (setting [6]), 77.1 ± 2.91 µM. Also, the IC50 in the test with HL60 cells (setting [7]) came out at 20.3 ± 4.53 µM; in the test on HL60 cells (setting [8]) it was 16.3 ± 1.12 µM; in the test with MOLM13 cells (setting [9]), 175 ± 48.7 µM; with MOLM13 cells (setting [10]), 50.2 ± 2 µM; with MOLM13 cells (setting [11]) it was 14.8 ± 3.55 µM; with MOLM13 cells (setting [12]) it was 175 ± 48.7 µM.
Regarding `O=C1/C(=C/c2ccccc2F)CNC/C1=C\c1ccccc1F` [EF24], the IC50 in the test on MEC1 cells (setting [13]) was 13.8 ± 4.93 µM; in the test on MEC1 cells (setting [14]), 1.06 ± 0.25 µM; with MEC1 cells (setting [15]) it was 1.66 ± 0.44 µM; with MEC1 cells (setting [16]), 13.8 ± 4.93 µM; in the test with HL60 cells (setting [17]), 4.27 ± 0.1 µM; in the test with HL60 cells (setting [18]), 0.67 ± 0.15 µM. In addition, the IC50 in the test with HL60 cells (setting [19]) was 1.75 ± 0.33 µM; in the test with HL60 cells (setting [20]), 4.27 ± 0.1 µM; in the test on MOLM13 cells (setting [21]), 8.53 ± 0.3 µM; in the test on MOLM13 cells (setting [22]) it was 0.84 ± 0.68 µM; with MOLM13 cells (setting [23]), 0.3 ± 0.03 µM; in the test on MOLM13 cells (setting [24]) it was 8.53 ± 0.3 µM.
For the compound `Cc1ccc(S(=O)(=O)/C=C/C#N)cc1` [Bay 11-7082], the IC50 is 9.15 ± 1.73 µM with MEC1 cells (setting [13]); 4.64 ± 0.41 µM in the test with MEC1 cells (setting [14]); 1.85 ± 0.04 µM in the test on MEC1 cells (setting [15]); 9.15 ± 1.73 µM in the test on MEC1 cells (setting [16]); 5.04 ± 0.32 µM with HL60 cells (setting [17]); 2.9 ± 0.16 µM in the test on HL60 cells (setting [18]). Also, the IC50 in the test with HL60 cells (setting [19]) was 2.47 ± 0.3 µM; in the test with HL60 cells (setting [20]) it was 5.04 ± 0.32 µM; with MOLM13 cells (setting [21]), 12.6 ± 3.51 µM; in the test with MOLM13 cells (setting [22]), 5.68 ± 0.08 µM; with MOLM13 cells (setting [23]) it was 2.04 ± 0.2 µM; in the test with MOLM13 cells (setting [24]), 12.6 ± 3.51 µM.
With `CNC(=O)c1cc(Oc2ccc(NC(=O)Nc3ccc(Cl)c(C(F)(F)F)c3)cc2)ccn1` [Sorafenib, sorafenib], the IC50 in the test with MEC1 cells (setting [1]) turned out to be 34.2 ± 2.9 µM; in the test on MEC1 cells (setting [2]) it was 12.7 ± 1.18 µM; in the test with MEC1 cells (setting [3]), 3.03 µM; with MEC1 cells (setting [4]), 34.2 µM; with HL60 cells (setting [5]), 35.2 ± 10 µM; in the test on HL60 cells (setting [6]), 35.2 ± 10.3 µM. Further, the IC50 came to 9.65 ± 1.06 µM in the test with HL60 cells (setting [7]); 1.44 µM in the test on HL60 cells (setting [8]); 0.037 ± 1e-05 µM in the test with MOLM13 cells (setting [9]); 0.003 ± 0.0009 µM in the test with MOLM13 cells (setting [10]); 0.002 µM with MOLM13 cells (setting [11]); 0.037 µM with MOLM13 cells (setting [12]).

These data come from patent US20200368211A1, “INHIBITION OF GAMMA-GLUTAMYLTRANSFERASE AND GLUTATHIONE CATABOLISM TO ENHANCE THE EFFICACY OF NF-KB SIGNALLING PATHWAY INHIBITORS” (UNIVERSITAET HEIDELBERG, priority 2017, published 2020).
